# Earlier results as cited in patent US20030136407A1, “Liquid composition to be vaporized for inhibiting increase in blood sugar level, vaporizer for the same and use of the same” (priority 1999, published 2003).
# Test system: Ehrlich Ascites Tumour Cells
# Conditions: in vitro; Chem. Pharm. Bull. 41(12) 2129-2131 (1993)
compound,measurement,value
C[C@H]1[C@H](C)CC[C@]2(C(=O)O)CC[C@]3(C)C(=CC[C@@H]4[C@@]5(C)C[C@@H](O)[C@H](O)C(C)(C)[C@@H]5CC[C@]43C)[C@H]12 [corosolic acid],activation of the mobility of grape sugar,activates the mobility of grape sugar
